What was measured:
DU-145 = assay: Antiproliferative activity against human DU-145 cells assessed as inhibition of cell growth incubated for 72 hrs by MTT assay; assay type: functional, cell-based; conditions: DU-145, 72 h
SW1990 = assay: Antiproliferative activity against human SW1990 cells assessed as inhibition of cell growth incubated for 72 hrs by MTT assay; assay type: functional, cell-based; conditions: SW1990, 72 h
HGC-27 = assay: Antiproliferative activity against human HGC-27 cells assessed as inhibition of cell growth incubated for 72 hrs by MTT assay; assay type: functional, cell-based; conditions: HGC-27, 72 h
BGC-823 = assay: Antiproliferative activity against human BGC-823 cells assessed as inhibition of cell growth incubated for 72 hrs by MTT assay; assay type: functional, cell-based; conditions: BGC-823, 72 h
B16-F10 = assay: Antiproliferative activity against mouse B16-F10 cells assessed as inhibition of cell growth incubated for 72 hrs by MTT assay; assay type: functional, cell-based; conditions: B16-F10, 72 h
NCI-H1299 = assay: Antiproliferative activity against human NCI-H1299 cells assessed as inhibition of cell growth incubated for 72 hrs by MTT assay; assay type: functional, cell-based; conditions: NCI-H1299, 72 h
MCF7 = assay: cells; conditions: Homo sapiens, MCF7, 72 h
Description: Antiproliferative activity against human MCF7 cells assessed as inhibition of cell growth incubated for 72 hrs by MTT assay

NCI-H460 = assay: cells; conditions: Homo sapiens, NCI-H460, 72 h
Description: Antiproliferative activity against human NCI-H460 cells assessed as inhibition of cell growth incubated for 72 hrs by MTT assay

A549 [1] = assay: cells; conditions: Homo sapiens, A549, 72 h
MDA-MB-231 = assay: cells; conditions: Homo sapiens, MDA-MB-231, 72 h
HepG2 = assay: cells; conditions: Homo sapiens, HepG2, 72 h
HCT-8 = assay: Antiproliferative activity against human HCT-8 cells assessed as inhibition of cell growth incubated for 72 hrs by MTT assay; assay type: functional, cell-based; conditions: HCT-8, 72 h
HCT-116 = assay: cells; conditions: Homo sapiens, HCT-116, 72 h
Description: Antiproliferative activity against human HCT-116 cells assessed as inhibition of cell growth incubated for 72 hrs by MTT assay

NCI-H1437 = assay: Antiproliferative activity against human NCI-H1437 cells assessed as inhibition of cell growth incubated for 72 hrs by MTT assay; assay type: functional, cell-based; conditions: NCI-H1437, 72 h
MCF7R = assay: Antiproliferative activity against paclitaxel-resistant human MCF7R cells assessed as inhibition of cell growth incubated for 72 hrs by MTT assay; assay type: functional, cell-based
A549 [2] = assay: Antitumor activity against paclitaxel-resistant human A549 cells xenografted in BALB/c nude mouse assessed as tumor growth inhibition at 24 mg/kg, po administered once daily and measured twice a week relative to control; assay type: functional; conditions: read-out: TGI
A549 [3] = assay: Antiproliferative activity against paclitaxel-resistant human A549 cells assessed as inhibition of cell growth incubated for 72 hrs by MTT assay; assay type: functional, cell-based; conditions: A549, 72 h
HUVEC = assay: Anti-angiogenesis activity against HUVEC cells assessed as inhibition of cell growth incubated for 72 hrs by MTT assay; assay type: functional, cell-based; conditions: Homo sapiens

Structure (SMILES) | IC50 (DU-145) [nM] | further results
CCCCc1ccc(S(=O)(=O)Nc2cc(C(=O)NCc3cccnc3)ccc2C)cc1 | > 10000 | –
Cc1ccc(S(=O)(=O)Nc2cc(C(=O)NCc3cccnc3)ccc2C)cc1C | 970 | –
Cc1ccc(S(=O)(=O)Nc2cc(C(=O)NCc3cccnc3)ccc2Cl)cc1 | 800 | –
Cc1ccc(C(=O)NCc2cccnc2)cc1NS(=O)(=O)c1ccc2ccccc2c1 | 1000 | –
Cc1ccc(C(=O)NCc2cccnc2)cc1NS(=O)(=O)c1ccc(C(F)(F)F)cc1 | 5300 | –
Cc1ccc(S(=O)(=O)Nc2cc(C(=O)NC3(c4cnccn4)CC3)ccc2C)cc1 | 800 | –
CCOc1ccc(S(=O)(=O)Nc2cc(C(=O)NCc3cccnc3)ccc2C)cc1 | 860 | –
Cc1ccc(S(=O)(=O)Nc2cc(C(=O)NCCc3cccnc3)ccc2C)cc1 | > 10000 | –
Cc1ccc(S(=O)(=O)Nc2cc(C(=O)NCc3ccnnc3)ccc2C)cc1 | 1300 | –
Cc1ccc(S(=O)(=O)Nc2cc(C(=O)NCc3cccnc3)cc(C(F)(F)F)c2)cc1 | > 10000 | –
Cc1ccc(S(=O)(=O)Nc2ccc(F)c(C(=O)NCc3cccnc3)c2)cc1 | > 10000 | –
Cc1ccc(C(=O)NCc2cccnc2)cc1NS(=O)(=O)c1ccc(C(C)C)cc1 | 1000 | –
Cc1ccc(S(=O)(=O)Nc2cc(Cl)cc(C(=O)NCc3cccnc3)c2)cc1 | 340 | –
Cc1ccc(S(=O)(=O)Nc2cccc(C(=O)NCc3cccnc3)c2)cc1 | 700 | –
COc1cc(NS(=O)(=O)c2ccc(C)cc2)cc(C(=O)NCc2cccnc2)c1 | 6200 | –
Cc1ccc(S(=O)(=O)Nc2cc(C(=O)NC(C)c3cnccn3)ccc2C)cc1 (stereo not drawn) | 510 | –
COc1cc2c(c(OC)c1OC)-c1ccc(OC)c(=O)cc1[C@@H](NC(C)=O)CC2 [COLCHICINE] | 3 | IC50 (SW1990): 10 nM; IC50 (HGC-27): 3 nM; IC50 (BGC-823): 16 nM; IC50 (B16-F10): 3 nM; IC50 (NCI-H1299): 4 nM; IC50 (MCF7): 6 nM; IC50 (NCI-H460): 54 nM; IC50 (A549 [1]): 30 nM; IC50 (MDA-MB-231): 23 nM; IC50 (HepG2): 2 nM; IC50 (HCT-8): 22 nM; IC50 (HCT-116): 3 nM; IC50 (NCI-H1437): 2 nM
Cc1ccc(S(=O)(=O)Nc2ccc(C)c(C(=O)NCc3cccnc3)c2)cc1 | 2000 | –
CC(=O)O[C@H]1C(=O)[C@@]2(C)[C@H]([C@H](OC(=O)c3ccccc3)[C@]3(O)C[C@H](OC(=O)[C@H](O)[C@@H](NC(=O)c4ccccc4)c4ccccc4)C(C)=C1C3(C)C)[C@]1(OC(C)=O)CO[C@@H]1C[C@@H]2O [PACLITAXEL] | < 1 | IC50 (MCF7R): 190 nM; IC50 (SW1990): 10 nM; IC50 (HGC-27): < 1 nM; IC50 (BGC-823): < 1 nM; IC50 (B16-F10): < 1 nM; IC50 (NCI-H1299): 9 nM; IC50 (MCF7): < 1 nM; IC50 (NCI-H460): < 1 nM; inhibition in vivo at 24 mg/kg (A549 [2]): 53.8%; IC50 (MDA-MB-231): < 1 nM; IC50 (HepG2): < 1 nM; IC50 (HCT-8): 86 nM; IC50 (A549 [3]): 390 nM; IC50 (HCT-116): < 1 nM; IC50 (NCI-H1437): < 1 nM; IC50 (HUVEC): 71 nM
Cc1ccc(C(=O)NCc2cccnc2)cc1NS(=O)(=O)c1ccc(Cl)cc1 | 930 | –
Cc1ccc(C(=O)NCc2cccnc2)cc1NS(=O)(=O)c1ccc(F)cc1 | 3500 | –
Cc1ccc(CNC(=O)c2ccc(C)c(NS(=O)(=O)c3ccc(C4CC4)cc3)c2)cn1 | 12 | –
Cc1ccc(S(=O)(=O)Nc2cc(C)cc(C(=O)NCc3cccnc3)c2)cc1 | 340 | –
COc1ccc(NS(=O)(=O)c2ccc(C)cc2)cc1C(=O)NCc1cccnc1 | > 10000 | –
CCc1ccc(S(=O)(=O)Nc2cc(C(=O)NCc3ccc(C)nc3)ccc2C)cc1 | 11 | –
COc1ccc(S(=O)(=O)Nc2cc(C(=O)NCc3cccnc3)ccc2C)cc1 | 180 | –
Cc1ccc(S(=O)(=O)Nc2cc(C(=O)NCc3ccccn3)ccc2C)cc1 | > 10000 | –

Structure (SMILES) | IC50 (DU-145) [nM] | further results
Cc1ccc(S(=O)(=O)Nc2cc(C(=O)NCc3cnccn3)ccc2C)cc1 | > 10000 | –
Cc1ccc(S(=O)(=O)Nc2cc(C(=O)NCc3ccccc3)ccc2C)cc1 | > 10000 | –
CNC(=O)c1ccc(C)c(NS(=O)(=O)c2ccc(C)cc2)c1 | > 10000 | –
Cc1ccc(C(=O)NCc2cccnc2)cc1NS(=O)(=O)c1ccc2c(c1)CCC2 | 900 | –
Cc1ccc(S(=O)(=O)Nc2cc(C(=O)NCc3ccncc3)ccc2C)cc1 | 1700 | –
Cc1ccc(S(=O)(=O)Nc2cc(C(=O)NCc3ccc(C(F)(F)F)nc3)ccc2C)cc1 | 200 | –
Cc1ccc(S(=O)(=O)Nc2cc(C(=O)NCc3ccc(Cl)nc3)ccc2C)cc1 | 65 | –
Cc1ccc(S(=O)(=O)Nc2cc(C(=O)NCc3cccnc3)ccc2C(F)(F)F)cc1 | > 10000 | –
CCc1ccc(C(=O)NCc2cccnc2)cc1NS(=O)(=O)c1ccc(C)cc1 | 860 | –
Cc1ccc(C(=O)NCc2cccnc2)cc1NS(=O)(=O)c1ccc2c(c1)OCCO2 | 420 | –
Cc1ccc(C(=O)NCc2cccnc2)cc1NS(=O)(=O)c1ccc(C#N)cc1 | > 10000 | –
Cc1ccc(C(=O)NCc2cccnc2)cc1NS(=O)(=O)c1ccc(OC(F)(F)F)cc1 | > 10000 | –
Cc1ccc(S(=O)(=O)Nc2cc(C(=O)NCc3cccnc3)ccc2C)c(C)c1 | 500 | –
Cc1ccc(C(=O)NCc2cccnc2)cc1NS(=O)(=O)c1ccc(C(C)(C)C)cc1 | > 10000 | –
CCCc1ccc(S(=O)(=O)Nc2cc(C(=O)NCc3cccnc3)ccc2C)cc1 | 9700 | –
Cc1ccc(S(=O)(=O)Nc2cc(F)cc(C(=O)NCc3cccnc3)c2)cc1 | 900 | –
Cc1ccc(C(=O)NCc2cccnc2)cc1NS(=O)(=O)c1ccc(C2CC2)cc1 | 50 | –
Cc1ccc(C(=O)NCc2cccnc2)cc1NS(=O)(=O)c1ccc2c(c1)CCO2 | 1200 | –
Cc1ccc(S(=O)(=O)Nc2ccc(Cl)c(C(=O)NCc3cccnc3)c2)cc1 | > 10000 | –
COc1ccc(C(=O)NCc2cccnc2)cc1NS(=O)(=O)c1ccc(C)cc1 | 9500 | –
Cc1ccc(S(=O)(=O)Nc2cc(C(=O)NCc3cccnc3)ccc2F)cc1 | 790 | –
Cc1ccc(S(=O)(=O)Nc2cc(C#N)cc(C(=O)NCc3cccnc3)c2)cc1 | > 10000 | –
Cc1ccc(C(=O)NCc2cccnc2)cc1NS(=O)(=O)c1ccc2c(c1)OCO2 | 610 | –
Cc1ccc(S(=O)(=O)Nc2cc(C(=O)NCc3cccnc3)ccc2C)cc1 | 120 | –
CCc1ccc(S(=O)(=O)Nc2cc(C(=O)NCc3cccnc3)ccc2C)cc1 | 40 | –
Cc1ccc(S(=O)(=O)Nc2cc(C(=O)Nc3cccnc3)ccc2C)cc1 | > 10000 | –
Cc1ccc(C(=O)NCc2cccnc2)cc1NS(=O)(=O)c1ccccc1 | > 10000 | –

Source: ChEMBL document CHEMBL5150075 (J Med Chem, 2022)
